Assays:
[1] = system: human umbilical vein endothelial cell (HUVEC); test: in vitro HUVEC angiogenesis (tube formation) assay; format: cell-based; details: for induction of angiogenesis by factor added to basal media: MultiStem basal media, IL-8 4000 pg/ml, CXCL5 150 pg/ml
Protocol: Growth factor-reduced Matrigel (BD Bioscience, San Jose, Calif.) was thawed on ice at 4° C. overnight and used at a concentration of 6.0-6.5 mg/ml, diluted on ice using ice-cold 1×PBS. Four-hundred microliters of Matrigel was distributed into the inner wells of a 24-well tissue culture plate and allowed to solidify for 1 hour at 37° C. Addition of Matrigel was done on ice and outer wells of plate were filled with 1 ml of 1×PBS.
HUVECs were harvested according to the following protocol: Cells were washed with 1×PBS followed by a brief rinse with 0.25× trypsin-EDTA and then quenched using the 1×PBS (with residual serum) wash. Cells were resuspended in endothelial cell basal media (EBM) and counted. HUVECs were added to the CM, other experimental conditions and controls at a concentration of 55,000 cells/ml/well. Each sample and control was assayed in triplicate. Plates were incubated for 6 hours or 18 hours at 5% CO2 and 37° C. to allow for tube formation. Four fields per well were analyzed for a total of 12 fields. Pictures were taken at using 10× objective. Angiogenesis was scored by counting the number of tubes formed between cells. Results are expressed as average tubes formed per field +/−SEM.
To test whether MultiStem secretes factors which promote angiogenesis, an in vitro angiogenesis assay using conditioned media from MultiStem was utilized. MultiStem were plated under normal conditions for 24 hours. The cells were then transferred to serum-free conditions to generate conditioned media for four days. This media was then tested for angiogenic activity in an in vitro tube formation assay. […] HUVECs were plated in conditioned media, basal media or endothelial growth media for 18 hours. Angiogenesis was measured as the average number of tubes formed per field of view for each condition. In the absence of any additional factors, the presence of serum alone in basal media can induce angiogenesis. Therefore, serum-free media was used for all the experiments.

[2] = system: MultiStem; test: RT-PCR analysis of pro-angiogenic gene expression in treated MultiStem; format: cell-based, human
Protocol: FIG. 7—Treatment of MultiStem with Cytomix increases the expression of pro-angiogenic molecules in vitro. MultiStem was grown for three days and then treated with Cytomix (10 ng/mL TNF-α, IL-1β and IFNγ) for 24, 48, 72 hrs. The cells were subsequently collected for RT-PCR analysis for pro-angiogenic gene expression.
FIGS. 10A-C—Pre-treatment of MultiStem with prostaglandin F or latanoprost (prostaglandin F agonist) increases expression of the angiogenic factors by MultiStem in vitro. […] MultiStem was treated with a dose range of Latanoprost for 24, 48 or 72 hours. Gene expression of pro-angiogenic factors was then analyzed by RT-PCR. Gene expression of KITLG (A), HGF and VEGF (B), and Il-8 (C) were all increased.

[3] = MultiStem treated 24, 48, 72 hrs
[4] = MultiStem treated 24, 48 or 72 hours

Q: How did the “induction of angiogenesis by factor added to basal media” value [1] turn out when “CXCL5: angiogenic cytokine added to MultiStem basal media (150 pg/ml)” was run?
A: not sufficient to induce angiogenesis

Q: CC(C)OC(=O)CCC/C=C\C[C@@H]1[C@@H](CC[C@@H](O)CCc2ccccc2)[C@H](O)C[C@@H]1O [latanoprost] was tested. Which HGF gene expression [2, 3] did it give?
A: increased

Q: What about the IL-8 gene expression [2, 3] of the same compound?
A: increased

Q: And the “VEGF (VEGF A) gene expression” value [2, 4]?
A: increased

Q: And the KITLG gene expression ([2]; MultiStem treated 24, 48 or 72 hours, dose range)?
A: increased

Q: And the “angiogenesis, CM from untreated cells with agent added after collection vs CM alone” value ([1]; 1 uM added to media after collection)?
A: equal levels

Q: What about the “tube formation, basal media with added agent” value ([1]; 1 uM in basal media, no cells) of the same compound?
A: did no induce significant tube formation

Q: And the “HUVEC tube formation, conditioned media from treated MultiStem vs untreated” value ([1]; MultiStem cultured three days with 1 uM, serum-free CM)?
A: increased modestly

Q: How did the “VEGF (VEGF A) gene expression” value [2, 4] turn out when prostaglandin F was run?
A: increased

Q: With “IL-8: interleukin 8 added to MultiStem basal media (4000 pg/ml)” as the compound, how does the “induction of angiogenesis by factor added to basal media” value [1] read?
A: not sufficient to induce angiogenesis

Reference: patent US20110206647A1, “Modulation of Angiogenesis” (ABT Holding Company, priority 2010, published 2011)
